This note sets out measurements from patent US9776992B2, “1-oxo-1,2-dihydroisoquinolin-7-yl-(5-substituted-thiophen-2-yl)-sulfonamide compounds, formulations containing those compounds, and their use as AICARFT inhibitors in the treatment of cancers” (Eli Lilly and Company, priority 2014, dated 2017).

In experiment [1] the target is T1, AICARFT (Homo sapiens, UniProt P31939). The experiment can be described thus: MS detection of ZMP in low folate media cultured NCI-H460 cells. The format is cell-based. Set-up: endogenous in cells; host or cells: NCI-H460. Conditions: low levels of folate in the media; summary of Table 16. As to the method:
Grow NCI-H460 cells in complete high folate RPMI media (ATCC #30-2001) until cellular confluence reaches ˜80%. Wash cells with PBS, trypsinize, resuspend cells in complete low folate RPMI media (Gibco #27016-021) and perform a cell count. Transfer 1.25×10^6 cells to a T225 flask containing complete low folate RPMI media (40 mL). Grow for seven days. Split cells again with complete low folate media if confluence surpasses 80%. Wash cells with PBS, trypsinize, resuspend cells in complete low folate RPMI media, and perform a cell count. Aliquot 10×10^6 cells in complete low folate media (1 mL)+5% DMSO per cryovial. Use a cell freezing apparatus to freeze cells in a slow and controlled manner in a −80° C. freezer. The next day, transfer cells to liquid nitrogen for long term storage. Thaw frozen cells from cryovial in 37° C. water bath, wash cells once with low folate assay medium: folate free RPMI 1640 medium (Gibco, #27016-021), Glucose (Sigma, #G5767), Hepes (Hyclone, #SH30237.01), Na Pyruvate (Hyclone, #Sh30239.01), 10% FBS (Hyclone, #SH30070.03). Adjust cells concentration to 250,000 cells/mL with medium, plate cells by adding 100 μl/well (25,000 cells/well) into Biocoat poly-D-lysine 96-well plate (BD, #35-4640), and incubate at 37° C. overnight with 5% CO2. Treat cells with 20 μl/well compound diluted in media containing 3% DMSO. Incubate at 37° C. for 16 hours with 5% CO2, then remove the medium and add 1× SureFire Lysis Buffer (50 μL) (PerkinElem, SureFire® Kit component) to each well and incubate at room temperature for 10 min with gentle shaking.
Cells grown in a 96-well plate have the media removed and are lysed in AlphaScreen® SureFire® lysis buffer. Standard curves containing ZMP, dUMP and AICAr at concentrations of 5-10,000 ng/mL are prepared in 40 mM ammonium acetate, pH 4. Aliquots (40 μL) of each standard or sample are combined in a deep 96-well plate with 160 μL of internal standard solution containing ^13C5-ZMP (custom synthesis) and ^13C5-AICAr (custom synthesis) at 100 ng/mL in 40 mM ammonium acetate, pH 4. A Beckman Biomek FX liquid handler is used to add 400 μL of DCM to each sample. Samples are sealed, vortexed for 5 minutes, and placed in the refrigerator for at least 30 minutes. The samples are centrifuged for 10 minutes at 4,000 rpm and 4° C. using an Eppendorf 5810R centrifuge, and the Biomek liquid handler is used to transfer 75 μL of the aqueous layer into a clean 96-well plate. The plates are sealed prior to analysis.
The LC-MS method utilizes a Shimadzu Prominence 20A HPLC system connected to an AB Sciex 5500™ or an AB Sciex 6500™ triple quadrupole mass spectrometer running Analyst® 2.1 software. Extracted samples are separated using a Thermo Hypercarb™ Javelin guard column (2.1×20 mm, […]) with an injection volume of 15 μL and a flow rate of 1 mL/minute. Mobile phase A is a 95:5 mixture of 50 mM ammonium formate, pH 4 and ACN. Mobile phase B is a 70:30 mixture of ACN and MeOH spiked with 0.3% formic acid and 2% concentrated ammonium hydroxide solution (v/v). The gradient is as follows: 0 minutes, 0% B; 0.25 minutes, 0% B; 2.00 minutes, 30% B; 2.01 minutes, 95% B; 3.50 minutes, 95% B, 3.51 minutes, 0% B, 5.00 minutes, stop.
The mass spectrometer is operated in positive ion TurboIonSpray® multiple reaction monitoring mode with a source temperature of 700° C. The precursor and fragment ions for each analyte are: ZMP (339→110), ^13C5-ZMP (344→110), dUMP (309→81), AICAr (259→127) and ^13C5-AICAr (264→127). Calibration curves are constructed by plotting analyte concentrations vs. analyte/internal standard peak area ratios and performing a linear fit of the data using a 1/concentration weighting with AB Sciex MultiQuant™ 2.1 software. Back-calculated ZMP concentrations are fit to a four-parameter logistic equation using ACTIVITYBASE 4.0 to determine IC50 values.

In experiment [2] the target is T1, AICARFT. The experiment can be described thus: AICARFT enzyme assay (LC-MS of IMP and ZMP). Format: biochemical. Set-up: made in house; host or cells: E. coli BL21(DE3). Conditions: summary of Table 15. As to the method: Human AICARFT (NCBI accession number: NM_004044.6) cDNA is purchased from Openbiosystem Co. (Cat# MHS1011-62310, Clone ID: 4300570, accession: BC008879). The nucleotide sequence encoding full-length human AICARFT is inserted into pET21d (Novagen) vector with an N-terminal HIS tag. Bacterial BL21(DE3) (Novagen) is used as an expression host, and the induction of protein expression is carried out in 2×TY media with 1 mM IPTG at 18° C. overnight. Cell pellets are stored at −80° C. for subsequent protein purification. Protein purification is conducted at 4° C. Frozen cell pellets are lysed by incubation with stirring in 50 mL cold lysis buffer (50 mM Tris-HCl, pH 7.5, 300 mM NaCl, 10% glycerol, 0.1% Triton X-100, 0.5 mg/mL lysozyme, 5 U/mL benzonase, 1 mM DTT, 10 mM imidazole, and Roche complete EDTA-free protease inhibitor) per liter cell pellet and sonication. Cell lysates are clarified by centrifugation in a Bechman JA-18 rotor for 45 min at 16,500 rpm. The supernatant is incubated with Ni-NTA agarose resin (Qiagen) for 3 hours, followed by an initial batch wash with 10 resin volume of buffer A (50 mM Tris-HCl, pH 7.5, 300 mM NaCl, 10% glycerol, 1 mM DTT, 10 mM imidazole) containing 0.1% Triton X-100. The resin is then packed onto a column and washed with buffer A. The HIS-tagged AICARFT protein is eluted with 10-500 mM imidazole gradient in buffer A. Pooled HIS-AICARFT containing fractions are concentrated, loaded onto a HiLoad 26/600 Superdex 200 column (GE Healthcare Biosciences), and eluted with storage buffer (50 mM Tris-HCl, pH7.5, 150 mM NaCl, 1 mM DTT, 10% Glycerol). Fractions containing HIS-AICARFT are pooled and protein concentration determined by the Bradford assay using BSA as standard. The protein is aliquoted and stored at −80° C.
One of the substrates of the enzyme reaction, 10-formyltetrahydrofolate (10-F-THFA), has limited chemical stability and is therefore synthesized on the same day that the ATIC enzyme assay is performed. The general synthetic route is described in P. Rowe, Methods Enzymol., 18, 733-735, (1971) and J. Rabinowitz, Methods Enzymol., 6, 814-815, (1963). The first step in this synthesis is the conversion of folinic acid (Sigma CAS 1492-18-8) to 5,10-methenyltetrahydrofolic acid (5,10-M-THFA). This conversion typically takes place the day before the enzyme assay is performed, but can be performed up to 1 week earlier and stored at room temperature. To folinic acid (81.6 mg) is added β-mercaptoethanol (2 mL), and 37% concentrated HCl (80 μL), is added. This reaction incubates a minimum of 3 hours at room temperature, with occasional mixing. The color changes from clear to yellow visually, and the complete conversion of folinic acid to 5,10-M-THFA is monitored by spectral analysis using a quartz cuvette. The UV absorption will change from 266 nm to 356 nm during this step. […] On the morning of the assay, the 80 mM 5,10-M-THFA is diluted to 1.6 mM in 40 μM ammonium bicarbonate (made fresh that day). This reaction incubates 3-5 hours at room temperature. The color changes from yellow to clear visually, and the conversion of 5,10-M-THFA to 10-F-THFA is monitored by spectral analysis using a quartz cuvette. The UV absorption will change from 356 nm to 258 nm during this step. […] Test compounds are prepared in DMSO to make a 10 mM stock solution. The stock solution is serially diluted 3-fold in DMSO to obtain a ten-point dilution curve with final compound concentrations ranging from 100 μM to 5 nM. The final DMSO concentration in the assay is 5%.
To each well of a 384-well polypropylene assay plate (NUNC 264573), […] of DMSO (control wells) or compound in DMSO and 9 μL of 55.56 μM ZMP (Sigma-Aldrich CAS 3031-94-5) in water are added. Then, 10 μL of 200 μM 10-F-THFA and 6 nM ATIC enzyme in 40 μM ammonium bicarbonate is added. […] The assay is incubated for 1 hour at room temperature, after which 40 μL of ACN is added to stop the reaction.

T1 sequence (P31939 whole entry): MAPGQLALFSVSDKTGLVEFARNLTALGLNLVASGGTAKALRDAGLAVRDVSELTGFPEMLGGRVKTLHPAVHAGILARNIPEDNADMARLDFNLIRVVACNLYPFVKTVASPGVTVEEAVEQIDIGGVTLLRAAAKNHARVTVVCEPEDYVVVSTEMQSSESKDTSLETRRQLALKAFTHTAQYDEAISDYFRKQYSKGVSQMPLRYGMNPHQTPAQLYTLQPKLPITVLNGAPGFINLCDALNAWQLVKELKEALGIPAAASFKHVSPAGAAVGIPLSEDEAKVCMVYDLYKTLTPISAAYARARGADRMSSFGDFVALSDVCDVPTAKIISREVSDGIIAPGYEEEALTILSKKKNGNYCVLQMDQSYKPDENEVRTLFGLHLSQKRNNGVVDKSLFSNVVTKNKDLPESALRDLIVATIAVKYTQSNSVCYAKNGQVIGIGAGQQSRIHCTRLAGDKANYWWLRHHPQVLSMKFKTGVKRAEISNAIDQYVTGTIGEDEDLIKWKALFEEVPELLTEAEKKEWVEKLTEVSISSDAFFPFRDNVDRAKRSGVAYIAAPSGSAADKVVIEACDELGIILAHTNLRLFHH

Regarding `O=c1[nH]ccc2cc(F)c(NS(=O)(=O)c3ccc(N4CC[C@H](O)C4)s3)cc12` [Example 8, N-(6-Fluoro-1-oxo-1,2-dihydroisoquinolin-7-yl)-5-[(3S)-3-hydroxypyrrolidin-1-yl]thiophene-2-sulfonamide], the “AICARFT inhibition in low folate media assay (in words)” value in experiment [1] is given as “still inhibit AICARFT”. In experiment [2], the “AICARFT inhibition in enzyme assay (in words)” value is “inhibit AICARFT”.
